Test results from US20250361241A1, “HPK1 INHIBITOR AND MEDICAL USE THEREOF” (Betta Pharmaceuticals Co., Ltd., priority 2022, published 2025).
Where “and” joins values, the source holds several entries; their conditions need not be identical. Equal values may be shown once.

What was measured:
GLK = GLK (Homo sapiens (Human), UniProt Q8IVH8); assay: GLK kinase assay (1 mM ATP system), ADP-Glo; assay type: biochemical
Procedure: Solution […] The test compound was serially diluted using DMSO to 200 times the detection concentration. […] Centrifuge at 1000×g for 30 seconds and incubate at 25° C. for 15 minutes. • (5) Add ATP and substrate: Add 2 μL of 2×ATP-MBP solution to the 384-well plate and centrifuge at 1000×g for 30 seconds. Seal the plate with a sealing film and incubate at 25° C. for 60 minutes. • (6) Add ADP-Glo reagent: Add 4 μL ADP-Glo reagent (Promega, V9103) to the 384-well plate, centrifuge at 1000×g for 30 seconds, and incubate at 25° C. for 60 minutes. • (7) Detection of luminescent signal: Add 8 μL of luminescent detection reagent (Promega, V9103) to a 384-well plate, centrifuge at 1000×g for 30 seconds, and incubate at 25° C. for 60 minutes. The chemiluminescent signal was read using a BMG microplate reader. • (8) Calculation of percentage inhibition rate: […] See Table 2 for the GLK kinase IC50 data of the example compounds on […].

HPK1 = HPK1 (Homo sapiens (Human), UniProt Q92918); assay: HPK1 enzyme activity detection (1 mM ATP system), ADP-Glo with MBP substrate, Pharmacological Experiment 2; assay type: biochemical
Sequence of HPK1 (Q92918 whole entry, species assumed): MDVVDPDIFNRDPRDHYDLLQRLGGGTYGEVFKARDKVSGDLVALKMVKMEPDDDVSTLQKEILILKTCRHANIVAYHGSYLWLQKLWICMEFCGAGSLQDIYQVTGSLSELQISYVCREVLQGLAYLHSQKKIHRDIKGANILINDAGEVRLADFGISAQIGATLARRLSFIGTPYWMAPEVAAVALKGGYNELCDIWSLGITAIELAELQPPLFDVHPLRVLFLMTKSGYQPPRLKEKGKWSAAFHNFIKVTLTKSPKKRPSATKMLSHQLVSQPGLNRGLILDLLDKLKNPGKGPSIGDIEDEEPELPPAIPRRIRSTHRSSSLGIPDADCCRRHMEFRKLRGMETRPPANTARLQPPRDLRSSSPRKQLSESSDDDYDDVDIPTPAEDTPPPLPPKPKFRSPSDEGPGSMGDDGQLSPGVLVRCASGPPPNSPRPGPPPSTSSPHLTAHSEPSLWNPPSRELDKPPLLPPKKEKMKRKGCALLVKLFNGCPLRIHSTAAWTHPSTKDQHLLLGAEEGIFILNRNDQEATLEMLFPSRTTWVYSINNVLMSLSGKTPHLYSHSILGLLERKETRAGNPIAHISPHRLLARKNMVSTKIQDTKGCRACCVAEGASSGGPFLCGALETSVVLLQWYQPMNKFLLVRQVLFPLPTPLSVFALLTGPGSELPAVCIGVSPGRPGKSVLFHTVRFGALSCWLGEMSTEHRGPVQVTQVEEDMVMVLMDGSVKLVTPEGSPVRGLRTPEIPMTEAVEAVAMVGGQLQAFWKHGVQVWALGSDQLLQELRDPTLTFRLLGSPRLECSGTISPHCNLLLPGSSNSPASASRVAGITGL
Procedure: Pharmacological Experiment 2: […] The test compound was serially diluted using DMSO to 200 times the detection concentration. […] Centrifuge at 1000×g for 30 seconds and incubate at 25° C. for 15 minutes. • (5) Adding ATP and substrate: Add 2 μL of 2×ATP-MBP solution to the 384-well plate and centrifuge at 1000×g for 30 seconds. Seal the plate with a sealing film and incubate at 25° C. for 60 minutes. • (6) Add ADP-Glo reagent: Add 4 μL ADP-Glo reagent (Promega, V9103) to the 384-well plate, centrifuge at 1000×g for 30 seconds, and incubate at 25° C. for 60 minutes. • (7) Detection of luminescent signal; Add 8 μL of luminescent detection reagent (Promega, V9103) to a 384-well plate, centrifuge at 1000×g for 30 seconds, and incubate at 25° C. for 60 minutes. The chemiluminescent signal was read using a BMG instrument. • (8) Calculation of percentage inhibition rate: […] See Table 2 for the enzymatic IC 50 data of the example compounds on HPK1.

Sequence of GLK (Q8IVH8 whole entry, species assumed): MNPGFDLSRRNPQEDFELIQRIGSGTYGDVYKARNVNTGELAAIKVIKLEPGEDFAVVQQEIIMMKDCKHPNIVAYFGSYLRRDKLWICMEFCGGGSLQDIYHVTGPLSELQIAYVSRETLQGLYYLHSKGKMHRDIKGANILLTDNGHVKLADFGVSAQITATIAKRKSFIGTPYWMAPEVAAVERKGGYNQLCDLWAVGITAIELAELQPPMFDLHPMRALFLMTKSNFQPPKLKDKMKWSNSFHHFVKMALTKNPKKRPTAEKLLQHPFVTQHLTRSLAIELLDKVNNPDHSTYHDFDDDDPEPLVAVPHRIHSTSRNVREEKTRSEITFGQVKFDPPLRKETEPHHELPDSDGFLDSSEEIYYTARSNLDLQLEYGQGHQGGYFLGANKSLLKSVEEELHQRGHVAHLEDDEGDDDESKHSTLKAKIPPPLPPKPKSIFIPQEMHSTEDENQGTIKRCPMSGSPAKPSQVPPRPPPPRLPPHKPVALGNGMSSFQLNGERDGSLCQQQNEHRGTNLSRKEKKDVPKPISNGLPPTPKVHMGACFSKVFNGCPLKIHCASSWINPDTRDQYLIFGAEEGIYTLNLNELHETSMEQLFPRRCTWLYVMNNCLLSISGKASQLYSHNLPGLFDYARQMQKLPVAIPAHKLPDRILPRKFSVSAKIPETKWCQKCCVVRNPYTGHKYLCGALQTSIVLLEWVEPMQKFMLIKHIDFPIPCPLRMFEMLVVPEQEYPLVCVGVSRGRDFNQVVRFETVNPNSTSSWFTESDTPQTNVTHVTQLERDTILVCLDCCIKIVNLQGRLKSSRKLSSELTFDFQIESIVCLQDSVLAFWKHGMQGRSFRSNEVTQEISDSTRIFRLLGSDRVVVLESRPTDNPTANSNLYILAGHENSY

| IC50 (GLK) | IC50 (HPK1) | SMILES |
| --- | --- | --- |
| 78 nM | 2.73 nM | CN(C)C1CC2(CCOCC2)c2ccc(Nc3ccc(-c4cnn5cc(F)ccc45)c4c3C(=O)NC4)nc21 (stereo not drawn) [Compound 36] |
| 858 nM | 5.22 nM | CC(C)(C)NC1CC2(CCOCC2)c2ccc(Nc3ccc(-c4cnc5cc(F)ccn45)c4c3C(=O)NC4)nc21 (stereo not drawn) [Compound 101] |
| > 30000 nM | 6.09 nM | O=C1NCc2c(-c3cnc4cc(F)ccn34)ccc(Nc3ccc4c(n3)C(N3CCOCC3)CC43CCOCC3)c21 (stereo not drawn) [Compound 59, 4-(7-FLUOROIMIDAZO[1,2-A]PYRIDIN-3-YL)-7-(7-MORPHOLIN-2′,3′,5′,6,6′,7-HEXAHYDROSPIRO[B]PYRIDIN-5,4′-PYRAN]-2-YL)AMINO)ISOINDOL-1-ONE] |
| > 30000 nM | 7.42 nM | CC(C)NC1CC2(CCOCC2)c2ccc(Nc3ccc(-c4cnc5cc(F)ccn45)c4c3C(=O)NC4)nc21 (stereo not drawn) [Compound 102] |
| 158 nM | 2.25 nM | CN(C)C1CC2(CCOCC2)c2ccc(Nc3ccc(-c4cnn5ccccc45)c4c3C(=O)NC4)nc21 (stereo not drawn) [Compound 37] |
| 299 nM | 3.02 nM | O=C1NCc2c(-c3cnc4cc(F)ccn34)ccc(Nc3ccc4c(n3)C(N3CC[C@H](F)C3)CC43CCOCC3)c21 (stereo partly drawn) [Compound 74] |
| 2150 nM | 7.56 nM | CN(C)Cc1nc(Nc2ccc(-c3cnc4cc(F)ccn34)c3c2C(=O)NC3)cc2c1C1(CCOCC1)NC2 [Compound 55] |
| 8.81 nM | 2.06 nM | Cc1cc(Nc2ccc(-c3cnn4ccccc34)c3c2C(=O)NC3)nc2c1C1(CCOCC1)C[C@H]2N(C)C [Compound 48] |
| > 3000 nM | 29.8 nM | CC(C)N1Cc2nc(Nc3ccc(-c4cnc5cc(F)ccn45)c4c3C(=O)NC4)ccc2C2(CCOCC2)C1 [Compound 119] |
| 631 nM | 4.76 nM | CN(C)C1CCC2(CCOCC2)c2ccc(Nc3ccc(-c4cnn5ccccc45)c4c3C(=O)NC4)nc21 (stereo not drawn) [Compound 33] |
| 831 nM | 5.19 nM | CC(C)N(C)C1CC2(CCOCC2)c2ccc(Nc3ccc(-c4cnc5cc(F)ccn45)c4c3C(=O)NC4)nc21 (stereo not drawn) [Compound 85, 4-(7-FLUOROIMIDAZO[1,2-A]PYRIDIN-3-YL)-7-((7-(ISOPROPYL(METHYL)AMINO)-2′,3′,5′,6,6′,7-HEXAHYDRO SPIRO[CYCLOPENTYL[B]PYRIDIN-5,4′-PYRAN]-2-YL)AMINO)ISOINDOL-1-ONE] |
| 119 nM | 4.62 nM | CN(C)C1CC2(CCOCC2)c2ccc(Nc3ccc(-c4cnc5cc(Cl)ccn45)c4c3C(=O)NC4)nc21 (stereo not drawn) [Compound 42] |
| 378 nM | 3.05 nM | CN(C)C1CC2(CCOCC2)c2ccc(Nc3ccc(-c4cnc5ncccn45)c4c3C(=O)NC4)nc21 (stereo not drawn) [Compound 44] |
| 791 nM | 5.97 nM | O=C1NCc2c(-c3cnc4cc(F)ccn34)ccc(Nc3ccc4c(n3)C(NC3CCCC3)CC43CCOCC3)c21 (stereo not drawn) [Compound 109] |
| 158 nM | 2.61 nM | CN(C)C1COC2(CCOCC2)c2ccc(Nc3ccc(-c4cnc5cc(Cl)ccn45)c4c3C(=O)NC4)nc21 (stereo not drawn) [Compound 86] |
| 2170 nM | 34.5 nM | O=C1NCc2c(-c3cnc4n3CCOC4)ccc(Nc3ccc4c(n3)CNCC43CCOCC3)c21 [Compound 153] |

| SMILES | IC50 (GLK) | IC50 (HPK1) |
| --- | --- | --- |
| CN(C1CC1)C1CC2(CCOCC2)c2ccc(Nc3ccc(-c4cnc5cc(F)ccn45)c4c3C(=O)NC4)nc21 (stereo not drawn) [Compound 61, 7-((7-(CYCLOPROPYL(METHYL)AMINO)-2′,3′,5′,6,6′,7-HEXAHYDROSPIRO[CYCLOPENTYL[B]PYRIDINE-5,4′-PYRAN]-2-YL)AMINO)-4-(7-FLUOROIMIDAZOLE[1,2-A]PYRIDIN-3-YL)ISOINDOL-1-ONE] | > 30000 nM | 7.7 nM |
| CN(C)C1CC2(CCOCC2)c2ccc(Nc3ccc(-c4cnc5cc(C#N)ccn45)c4c3C(=O)NC4)nc21 (stereo not drawn) [Compound 157, 3-(7-((7-(DIMETHYLAMINO)-2′,3′,5′,6,6′,7-HEXAHYDROSPIRO]CYCLOPENTANE[B]PYRIDINE-5,4′-PYRAN]-2-YL)AMINO)-1-OXOISOINDOL-4-YL)IMIDAZO[1,2-A]PYRIDINE-7-CARBONITRILE] | 877 nM | 5.9 nM |
| CN(C)C1CCC2(CCOCC2)c2ccc(Nc3ccc(-c4cnc5cc(F)ccn45)c4c3C(=O)NC4)nc21 (stereo not drawn) [Compound 3] | 2860 nM | 4.16 nM |
| N#Cc1ccn2c(-c3ccc(Nc4ccc5c(n4)CCCC54CCOCC4)c4c3CNC4=O)cnc2c1 [Compound 146, 3-(7-((2,3,5,6,7′,8′-HEXAHYDRO-6′-H-SPIRO[PYRAN-4,5′-[1,7]NAPHTHYRIDINE]-2′-YL)AMINO)-1-OXOISOINDOL-4-YL)IMIDAZO[1,2-A]PYRIDINE-7-CARBONITRILE] | 1230 nM | 4.33 nM |
| O=C1NCc2c(-c3cnc4cc(F)ccn34)ccc(Nc3ccc4c(n3)C(N3CCC3)CC43CCOCC3)c21 (stereo not drawn) [Compound 39, 7-(7-(AZETIDIN-1-YL)-2′,3′,5′,6,6′,7-HEXAHYDROSPIRO[B]PYRIDINE-5,4′-PYRAN]-2-YL)AMINO)-4-(7-FLUOROIMIDAZO[1,2-A]PYRIDIN-3-YL)ISOINDOL-1-ONE] | 88.2 nM | 3.7 nM and 2.78 nM |
| O=C1NCc2c(-c3cnc4cc(F)ccn34)ccc(Nc3ccc4c(n3)C(N3CC(F)C3)CC43CCOCC3)c21 (stereo not drawn) [Compound 67, 7-(7-(3-FLUOROAZETIDINE-1-YL)-2′,3′,5′,6,6′,7-HEXAHYDROSPIRO[B]PYRIDINE-5,4′-PYRAN]-2-YL)AMINO)-4-(7-FLUOROIMIDAZO[1,2-A]PYRIDIN-3-YL)ISOINDOLIN-1-ONE] | 136 nM | 2.49 nM |
| CN(C)C1CC2(CCOC2)c2ccc(Nc3ccc(-c4cnc5cc(OC(F)F)ccn45)c4c3C(=O)NC4)nc21 (stereo not drawn) [Compound 172, 4-(7-(DIFLUOROMETHOXY)IMIDAZO[1,2-A]PYRIDIN-3-YL)-7-((7-(METHYLAMINO)-4′,5′,6,7-TETRAHYDRO-2′-H-PYRIDO[CYCLOPENTYL[B]PYRIDINE-5,3′-FURAN]-2-YL)AMINO)ISOINDOLIN-1-ONE] | 1120 nM | 13.8 nM |
| CN(C)C1CC2(CCOCC2)c2ccc(Nc3ccc(-c4cnc5cc(C(F)F)ccn45)c4c3C(=O)NC4)nc21 (stereo not drawn) [Compound 160, 4-(7-(DIFLUOROMETHYL)IMIDAZO[1,2-A]PYRIDIN-3-YL)-7-((7-(METHYLAMINO)-2′,3′,5′,6,6′,7-HEXAHYDRO SPIRO[CYCLOPENTANE[B]PYRIDINE-5,4′-PYRAN]-2-YL)AMINO)ISOINDOL-1-ONE] | 460 nM | 6.57 nM |
